From article PMC8621172, “Manipulating Estrogenic/Anti-Estrogenic Activity of Triphenylethylenes towards Development of Novel Anti-Neoplastic SERMs” (International Journal of Molecular Sciences, 2021)

Legend:
ER = conditions: fold over TAM; cited from earlier work
prostate cell lines = assay: NCI five-dose assay, prostate subpanel; type: cell-based; conditions: Homo sapiens
Protocol: (§1) All compounds were subjected to the NCI in vitro disease-oriented human cells screening panel assay. The human tumor cell lines of the cancer-screening panel are grown in RPMI 1640 medium containing 5% fetal bovine serum and 2 mM L-glutamine. For a typical screening experiment, cells are inoculated into 96-well microtiter plates in 100 μL at plating densities ranging from 5000 to 40,000 cells/well depending on the doubling time of individual cell lines. After cell inoculation, the microtiter plates are incubated at 37 °C, 5% CO2, 95% air, and 100% relative humidity for 24 h prior to the addition of experimental drugs. After 24 h, two plates of each cell line are fixed in situ with TCA to represent a measurement of the cell population for each cell line at the time of drug addition. Experimental drugs are solubilized in dimethyl sulfoxide at 400-fold the desired final maximum test concentration and stored frozen prior to use. At the time of drug addition, an aliquot of frozen concentrate is thawed and diluted to twice the desired final maximum test concentration with complete medium containing 50 μg/mL gentamicin. […] Bound stain is subsequently solubilized with a 10 mM trizma base, and the absorbance is read on an automated plate reader at a wavelength of 515 nm. […] Three response parameters (GI50, TGI, and LC50) were calculated for each cell line.

renal cell lines = assay: NCI five-dose assay, renal subpanel; type: cell-based; conditions: Homo sapiens
Protocol: as §1

colon cancer cell lines = assay: NCI five-dose assay, colon cancer subpanel; type: cell-based; conditions: Homo sapiens
Protocol: as §1

NSCLC cell lines = assay: NCI five-dose assay, NSCLC subpanel; type: cell-based; conditions: Homo sapiens
Protocol: as §1

MCF-7 cells = assay: NCI growth inhibition on MCF-7 (single dose and five-dose, SRB); type: cell-based, human; conditions: Homo sapiens, MCF7
Protocol: Compounds were submitted to the Developmental Therapeutics Program (DTP) of the National Cancer Institute (NCI). The program uses a panel of 60 human tumor cell lines representing nine tissue types, including leukemia, non-small cell lung cancer (NSCLC), melanoma, colon cancer, ovarian cancer, CNS cancer, renal cancer, prostate cancer, and breast cancer, to screen for potential new anti-cancer agents. […] Primary screening of synthesized compounds was performed by testing a single high dose of 10 µM in the full NCI-60 panel. The percent growth of treated cells relative to the no-drug control and relative to the time zero number of cells was measured, and a mean graph was provided. The percentage inhibition was then calculated by subtracting the values obtained from 100.
All compounds were subjected to the NCI in vitro disease-oriented human cells screening panel assay. The human tumor cell lines of the cancer-screening panel are grown in RPMI 1640 medium containing 5% fetal bovine serum and 2 mM L-glutamine. For a typical screening experiment, cells are inoculated into 96-well microtiter plates in 100 μL at plating densities ranging from 5000 to 40,000 cells/well depending on the doubling time of individual cell lines. After cell inoculation, the microtiter plates are incubated at 37 °C, 5% CO2, 95% air, and 100% relative humidity for 24 h prior to the addition of experimental drugs. After 24 h, two plates of each cell line are fixed in situ with TCA to represent a measurement of the cell population for each cell line at the time of drug addition. Experimental drugs are solubilized in dimethyl sulfoxide at 400-fold the desired final maximum test concentration and stored frozen prior to use. At the time of drug addition, an aliquot of frozen concentrate is thawed and diluted to twice the desired final maximum test concentration with complete medium containing 50 μg/mL gentamicin. Additional four, 10-fold, or ½ log serial dilutions are made to provide a total of five drug concentrations plus control. Aliquots of 100 μL of these different drug dilutions are added to the appropriate microtiter wells already containing 100 μL of medium, resulting in the required final drug concentrations. Following drug addition, the plates are incubated for an additional 48 h at 37 °C, 5% CO2, 95% air, and 100% relative humidity. For adherent cells, the assay is terminated by the addition of cold TCA. Cells are fixed in situ by the gentle addition of 50 μL of cold 50% (w/v) TCA (final concentration, 10% TCA) and incubated for 60 min at 4 °C. The supernatant is discarded, and the plates are washed five times with tap water and air-dried. Sulforhodamine B (SRB) solution (100 μL) at 0.4% (w/v) in 1% acetic acid is added to each well, and plates are incubated for 10 min at room temperature. After staining, unbound dye is removed by washing five times with 1% acetic acid, and the plates are air-dried. Bound stain is subsequently solubilized with a 10 mM trizma base, and the absorbance is read on an automated plate reader at a wavelength of 515 nm. For suspension cells, the methodology is the same except that the assay is terminated by fixing settled cells at the bottom of the wells by gently adding 50 μL of 80% TCA (final concentration, 16% TCA). Compounds are screened at a dose of 10 µM, hits showing mean growth inhibition over 60 cell lines >50% are escalated for 5-dose screening assay. To construct a dose-response curve, about 60 cell lines of nine tumor subpanels were incubated with five concentrations (0.01–100 μM) for each compound. Three response parameters (GI50, TGI, and LC50) were calculated for each cell line.

| Structure (SMILES) | affinity to the ER compared to the parent drug TAM (times) (ER) | GI50 (prostate cell lines) | GI50 (renal cell lines) | GI50 (colon cancer cell lines) | GI50 (NSCLC cell lines) | inhibition at 10 µM (MCF-7 cells; 10 µM) | GI50 (MCF-7 cells; MCF-7, five-dose assay, 48 h) |
| --- | --- | --- | --- | --- | --- | --- | --- |
| CC/C(=C(\c1ccc(O)cc1)c1ccc(OCCN(C)C)cc1)c1ccccc1 [Compound 4-OH-TAM, 4-hydroxy-TAM] | 100 |  |  |  |  |  |  |
| CC/C(=C(\c1ccccc1)c1ccc(OCCN(C)C)cc1)c1ccccc1 [TAM, Tamoxifen, reference compound] |  | 5.35 µM | 5 µM | 6.31 µM | 6.31 µM | > 100% | 1.58 µM |
| CC/C(=C(\c1ccc(O)cc1)c1ccc(OCCNC)cc1)c1ccccc1 [endoxifen] | 100 |  |  |  |  |  |  |
